{"source": "ChEMBL document CHEMBL6096631", "about": "“The application of PROTACs in immune-inflammation diseases” (Bioorg Med Chem, 2024)", "type_in_all_cases": "cell-based", "key": {"[1]": {"target": "T1, von Hippel-Lindau disease tumor suppressor/Mitogen-activated protein kinase 14 (Homo sapiens, UniProt Q16539+P40337)", "experiment": "PROTAC activity at VHL/p38alpha in human THP-1 cells assessed as induction of protein degradation by measuring maximal efficacy at 10 uM incubated for 16 hrs by Western blot analysis relative to control"}, "[2]": {"target": "T2, Protein cereblon/Interleukin-1 receptor-associated kinase 4 (Homo sapiens, UniProt Q9NWZ3+Q96SW2)", "experiment": "PROTAC activity at CRBN/IRAK4 in human PBMC cells assessed as induction of degradation measured after 24 hrs by Immuno-blotting analysis"}, "[3]": {"experiment": "PROTAC activity at VHL/human p38alpha in MDA-MB-231 cells assessed as p38alpha degradation"}, "[4]": {"target": "T3, Protein cereblon/Tyrosine-protein kinase BTK (Homo sapiens, UniProt Q06187+Q96SW2)", "experiment": "PROTAC activity at CRBN/BTK in human Ramos cells assessed as protein degradation"}, "[5]": {"target": "T3, Protein cereblon/Tyrosine-protein kinase BTK", "experiment": "PROTAC activity at CRBN/BTK in human Ramos cells assessed as induction of protein degradation by measuring maximal efficacy at 10 uM relative to control"}, "[6]": {"target": "T3, Protein cereblon/Tyrosine-protein kinase BTK", "experiment": "PROTAC activity at CRBN/BTK in human Huh-7 cells assessed as protein degradation"}, "[7]": {"target": "Protein cereblon/Non-receptor tyrosine-protein kinase TYK2 (Homo sapiens, UniProt P29597+Q96SW2)", "sequence (P29597 whole entry)": "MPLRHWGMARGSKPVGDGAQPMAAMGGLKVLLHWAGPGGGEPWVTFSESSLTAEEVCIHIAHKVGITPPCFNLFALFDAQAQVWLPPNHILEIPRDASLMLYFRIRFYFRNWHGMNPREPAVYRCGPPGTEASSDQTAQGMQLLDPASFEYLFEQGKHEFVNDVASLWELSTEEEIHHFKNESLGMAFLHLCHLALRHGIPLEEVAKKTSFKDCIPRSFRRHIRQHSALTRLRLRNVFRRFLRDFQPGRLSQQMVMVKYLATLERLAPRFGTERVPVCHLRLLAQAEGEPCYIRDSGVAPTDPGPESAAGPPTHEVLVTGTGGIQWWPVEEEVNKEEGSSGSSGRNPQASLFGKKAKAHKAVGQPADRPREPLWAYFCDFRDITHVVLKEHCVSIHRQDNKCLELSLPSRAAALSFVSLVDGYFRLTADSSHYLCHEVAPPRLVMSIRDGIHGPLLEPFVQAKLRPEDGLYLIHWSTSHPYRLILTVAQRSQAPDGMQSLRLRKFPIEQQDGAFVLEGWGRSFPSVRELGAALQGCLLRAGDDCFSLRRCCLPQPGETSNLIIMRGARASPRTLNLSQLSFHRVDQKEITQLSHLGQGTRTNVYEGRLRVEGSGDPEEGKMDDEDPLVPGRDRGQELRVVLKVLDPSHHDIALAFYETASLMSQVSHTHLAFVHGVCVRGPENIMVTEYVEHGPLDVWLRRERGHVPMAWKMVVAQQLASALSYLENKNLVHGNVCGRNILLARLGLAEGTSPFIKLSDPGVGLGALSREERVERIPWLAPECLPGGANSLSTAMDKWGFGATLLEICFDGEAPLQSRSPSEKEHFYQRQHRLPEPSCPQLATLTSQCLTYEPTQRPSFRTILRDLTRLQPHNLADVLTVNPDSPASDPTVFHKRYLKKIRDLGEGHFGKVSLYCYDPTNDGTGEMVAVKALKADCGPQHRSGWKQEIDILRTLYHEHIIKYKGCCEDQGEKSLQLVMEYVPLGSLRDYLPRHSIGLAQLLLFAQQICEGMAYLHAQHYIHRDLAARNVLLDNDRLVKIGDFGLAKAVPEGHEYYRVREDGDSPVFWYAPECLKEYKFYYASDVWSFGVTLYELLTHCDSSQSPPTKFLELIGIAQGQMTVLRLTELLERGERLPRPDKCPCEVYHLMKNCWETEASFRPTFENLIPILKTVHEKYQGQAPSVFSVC", "sequence (Q96SW2 whole entry)": "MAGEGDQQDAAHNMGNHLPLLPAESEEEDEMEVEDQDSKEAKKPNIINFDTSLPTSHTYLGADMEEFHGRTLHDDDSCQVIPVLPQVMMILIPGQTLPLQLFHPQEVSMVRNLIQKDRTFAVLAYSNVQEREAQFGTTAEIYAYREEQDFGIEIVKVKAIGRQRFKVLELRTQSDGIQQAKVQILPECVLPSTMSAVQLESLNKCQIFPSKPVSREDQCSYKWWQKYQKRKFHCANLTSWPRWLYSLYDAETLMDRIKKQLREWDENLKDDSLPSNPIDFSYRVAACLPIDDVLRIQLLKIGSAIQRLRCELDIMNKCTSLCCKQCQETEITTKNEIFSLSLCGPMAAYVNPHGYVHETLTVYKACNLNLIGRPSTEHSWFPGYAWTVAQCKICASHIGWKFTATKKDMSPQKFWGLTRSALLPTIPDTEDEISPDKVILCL", "experiment": "PROTAC activity at CRBN/TYK2 in HEL cells assessed as TYK2 degradation incubated for 24 hrs by Western blotting analysis"}, "[8]": {"target": "T4, von Hippel-Lindau disease tumor suppressor/Receptor-interacting serine/threonine-protein kinase 2 (Homo sapiens, UniProt O43353+P40337)", "experiment": "PROTAC activity at VHL/RIPK2 in human THP-1 cells assessed as RIPK2 degradation measured after 16 hrs by Western blot analysis"}, "[9]": {"target": "T4, von Hippel-Lindau disease tumor suppressor/Receptor-interacting serine/threonine-protein kinase 2", "experiment": "PROTAC activity at VHL/RIPK2 in human THP-1 cells assessed as RIPK2 degradation by measuring maximal efficacy at 10 nM measured after 16 hrs by Western blot analysis relative to control"}, "[10]": {"target": "T5, von Hippel-Lindau disease tumor suppressor/Interleukin-1 receptor-associated kinase 4 (Homo sapiens, UniProt Q9NWZ3+P40337)", "experiment": "PROTAC activity at VHL E3 ligase/IRAK4 in human PBMC cells assessed as induction of degradation of IRAK4 incubated overnight by immunoblot analysis"}, "[11]": {"target": "T2, Protein cereblon/Interleukin-1 receptor-associated kinase 4", "experiment": "PROTAC activity at CRBN/IRAK4 in human KARPAS-299 cells assessed as induction of IRAK4 degradation"}, "[12]": {"target": "T1, von Hippel-Lindau disease tumor suppressor/Mitogen-activated protein kinase 14", "experiment": "PROTAC activity at VHL/p38alpha in human THP-1 cells assessed as MAPK degradation incubated for 16 hrs by Western blot analysis"}, "[13]": {"target": "T2, Protein cereblon/Interleukin-1 receptor-associated kinase 4", "experiment": "PROTAC activity at CRBN/IRAK4 in human HEK293T cells assessed as induction of protein degradation by measuring maximal efficacy at 10 uM measured after 24 hrs by immunoblotting analysis relative to control"}, "[14]": {"target": "T5, von Hippel-Lindau disease tumor suppressor/Interleukin-1 receptor-associated kinase 4", "experiment": "PROTAC activity at VHL E3 ligase/IRAK4 in human PBMC cells assessed as induction of degradation of IRAK4 incubated for 16 hrs by immunoblot analysis relative to control"}}, "data": [{"smiles": "COc1cc2c(Oc3ccc(NC(=O)C4(C(=O)Nc5ccc(F)cc5)CC4)cc3F)ccnc2cc1OCCCCOCCCCOCC(=O)N[C@H](C(=O)N1C[C@H](O)C[C@H]1C(=O)NCc1ccc(-c2scnc2C)cc1)C(C)(C)C", "values": [{"measurement": "Emax", "setting": "[1]", "value": 97.4, "unit": "%"}]}, {"smiles": "CC[C@@H]1[C@H](F)C(=O)N[C@@H]1COc1ncc(C#CCN2CCC3(CC2)CCN(c2ncc(C(=O)N[C@H](C(=O)N4C[C@H](O)C[C@H]4C(=O)NCc4ccc(-c5scnc5C)cc4)C(C)(C)C)cn2)CC3)c2cc(C(N)=O)c(OC)cc12", "values": [{"measurement": "DC50", "setting": "[2]", "value": 151, "unit": "nM"}]}, {"smiles": "Cc1ccc(C(=O)NCCCCc2cn(CCCC(=O)NCCCCCCc3cccc4c3CN(C3CCC(=O)NC3=O)C4=O)nn2)cc1-n1c(C)cc(OCc2ccc(F)cc2F)c(Br)c1=O", "note": "(centres undefined)", "values": [{"measurement": "DC50", "setting": "[3]", "value": 19.1, "unit": "nM"}]}, {"smiles": "Nc1ncnc2c1c(-c1ccc(Oc3ccccc3)cc1)nn2C1CCN(C(=O)CN2CCN(CC3CN(c4ccc5c(c4)C(=O)N(C4CCC(=O)NC4=O)C5=O)C3)CC2)CC1", "note": "(centres undefined)", "values": [{"measurement": "DC50", "setting": "[4]", "value": 3.18, "unit": "nM"}, {"measurement": "Emax", "setting": "[5]", "value": 99.9, "unit": "%"}]}, {"smiles": "COc1cc(C)c(Sc2cnc(NC(=O)c3ccc(N4CCN(CCCCCCCNC(=O)COc5cccc6c5C(=O)N(C5CCC(=O)NC5=O)C6=O)CC4)cc3)s2)cc1C(=O)N1CCN(C(C)=O)CC1", "note": "(centres undefined)", "values": [{"measurement": "DC50", "setting": "[6]", "value": 17, "unit": "nM"}]}, {"smiles": "CNC(=O)c1cnc(Nc2ccc(C(=O)NCCCCCCCCCC(=O)N[C@H](C(=O)N3C[C@H](O)C[C@H]3C(=O)NCc3ccc(-c4scnc4C)cc3)C(C)(C)C)cn2)cc1Nc1cccc(-c2ncn(C)n2)c1OC", "values": [{"measurement": "DC50", "setting": "[7]", "value": 14, "unit": "nM"}]}, {"smiles": "CN[C@@H](C)C(=O)N[C@H](C(=O)N1CCC[C@H]1c1nc(C(=O)c2ccc(F)cc2)cs1)C1CCN(C(=O)c2cnc(N3CCN(CCOc4cc5ncnc(Nc6n[nH]c(C)c6C)c5cc4S(=O)(=O)C(C)(C)C)CC3)nc2)CC1", "values": [{"measurement": "DC50", "setting": "[8]", "value": 9.4, "unit": "nM"}, {"measurement": "Emax", "setting": "[9]", "value": 94.3, "unit": "%"}]}, {"smiles": "O=C(/C=C/C(=O)Nc1ccc(NC(=O)c2ccc([N+](=O)[O-])o2)cc1)NCCCCCCNc1cccc2c1C(=O)N(C1CCC(=O)NC1=O)C2=O", "note": "(centres undefined)", "values": [{"measurement": "DC50", "setting": "[10]", "value": 3.2, "unit": "nM"}]}, {"smiles": "Cc1ccc(C(=O)NCCCCc2cn(CCCC(=O)NCCCCNc3cccc4c3C(=O)N(C3CCC(=O)NC3=O)C4=O)nn2)cc1-n1c(C)cc(OCc2ccc(F)cc2F)c(Br)c1=O", "note": "(centres undefined)", "values": [{"measurement": "DC50", "setting": "[3]", "value": 48.9, "unit": "nM"}]}, {"smiles": "O=C1CCC(N2C(=O)c3cccc(N4CCN(C(=O)C5CCN(c6ccc(NC(=O)c7cnc(Oc8ccccc8)nc7)cc6)CC5)CC4)c3C2=O)C(=O)N1", "note": "(centres undefined)", "values": [{"measurement": "DC50", "setting": "[11]", "value": 17.3, "unit": "nM"}]}, {"smiles": "COc1cc2c(Oc3ccc(NC(=O)C4(C(=O)Nc5ccc(F)cc5)CC4)cc3F)ccnc2cc1OCCOCCOCCOc1cc(-c2scnc2C)ccc1CNC(=O)[C@@H]1C[C@@H](O)CN1C(=O)[C@H](C(C)C)N1Cc2ccccc2C1=O", "values": [{"measurement": "Emax", "setting": "[1]", "value": 99.4, "unit": "%"}, {"measurement": "DC50", "setting": "[12]", "value": 46.2, "unit": "nM"}]}, {"smiles": "CC(C)Nc1cc(-n2ccc3cc(C#N)cnc32)ncc1C(=O)N[C@H]1CC[C@H](C(=O)NCCOCCNC(=O)COc2cccc3c2C(=O)N(C2CCC(=O)NC2=O)C3=O)CC1", "note": "(some centres undefined)", "values": [{"measurement": "Emax", "setting": "[13]", "value": 90, "unit": "%"}]}, {"smiles": "CN[C@H](C)C(=O)N[C@@H](C(=O)N1C[C@H](NC(=O)c2cnc(N3CCN(CCCOc4cc5ncnc(Nc6n[nH]c(C)c6C)c5cc4S(=O)(=O)C(C)(C)C)CC3)cn2)C[C@@H]1C(=O)Nc1c(F)cccc1F)C(C)(C)C", "values": [{"measurement": "Emax", "setting": "[9]", "value": 90, "unit": "%"}]}, {"smiles": "Cc1ncsc1-c1ccc(CNC(=O)[C@@H]2C[C@@H](O)CN2C(=O)[C@@H](NC(=O)COCCOCCOCCOCCOc2cc3nccc(Nc4ccc5scnc5c4)c3cc2S(=O)(=O)C(C)(C)C)C(C)(C)C)cc1", "values": [{"measurement": "Emax", "setting": "[9]", "value": 95, "unit": "%"}]}, {"smiles": "CCn1nc(C)cc1C(=O)Nc1nc2cc(C(=O)NCCCCCCCCC(=O)N[C@H](C(=O)N3C[C@H](O)C[C@H]3C(=O)NCc3ccc(-c4scnc4C)cc3)C(C)(C)C)cc(OC)c2n1C/C=C/Cn1c(NC(=O)c2cc(C)nn2CC)nc2cc(C(N)=O)cc(OCCCN3CCOCC3)c21", "values": [{"measurement": "DC50", "setting": "[10]", "value": 227, "unit": "nM"}, {"measurement": "Emax", "setting": "[14]", "value": 91.7, "unit": "%"}]}]}
